The text below walks through data of US6303749A, “Agouti and agouti-related peptide analogs” (Amgen Inc., priority 1999, dated 2001).

Square brackets hold non-standard residues; d marks the D form. Ends that are not written are not given here. Abu = CC[C@H](N)C(=O)O

The target of experiment [1] is T1, human melanocortin-3 (MC-3) receptors (Homo sapiens, UniProt P41968).
T1 construct: expressed in transfected cells; membrane fraction used
Nature of the experiment: Melanocortin receptor binding assay, 125I-AGRP competition, MC-3. As to conditions: Table II; HEK 293 cell membranes; 125I-AGRP 1.10 nM; read-out: hMC3 IC50 (nM) 125I-AGRP.

For experiment [2], the target named is T1, human melanocortin-3 (MC-3) receptors. Nature of the experiment: Melanocortin receptor binding assay, 125I-NDP-alpha-MSH competition, MC-3. As to conditions: HEK 293 cell membranes; about […] 125I-NDP-α-MSH; 180 minutes at 25 C; read-out: hMC3 IC50 (nM) 125I NDP-MSH.
Experiment [3] deals with T2, human melanocortin-4 (MC-4) receptors (Homo sapiens, UniProt P32245).
T2 construct: expressed in transfected cells; membrane fraction used
The experiment is classed as binding. As to conditions: HEK 293 cell membranes; about […] 125I-NDP-α-MSH; 180 minutes at 25 C; read-out: hMC4 IC50 (nM) 125I NDP-MSH.

The format of experiment [4] is binding, human. As to conditions: Table II; HEK 293 cell membranes; 125I-AGRP 1.10 nM; read-out: hMC3 IC50 (nM) 125I-AGRP.

T1 sequence (P41968 whole entry): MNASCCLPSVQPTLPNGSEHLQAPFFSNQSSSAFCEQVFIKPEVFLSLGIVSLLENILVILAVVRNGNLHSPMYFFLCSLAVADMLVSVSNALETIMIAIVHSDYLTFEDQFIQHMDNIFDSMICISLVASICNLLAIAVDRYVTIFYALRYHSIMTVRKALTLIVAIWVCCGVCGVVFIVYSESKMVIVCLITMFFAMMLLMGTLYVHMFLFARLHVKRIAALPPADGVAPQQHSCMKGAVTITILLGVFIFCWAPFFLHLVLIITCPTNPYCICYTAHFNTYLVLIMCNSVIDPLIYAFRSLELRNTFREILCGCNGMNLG
T2 sequence (P32245 whole entry): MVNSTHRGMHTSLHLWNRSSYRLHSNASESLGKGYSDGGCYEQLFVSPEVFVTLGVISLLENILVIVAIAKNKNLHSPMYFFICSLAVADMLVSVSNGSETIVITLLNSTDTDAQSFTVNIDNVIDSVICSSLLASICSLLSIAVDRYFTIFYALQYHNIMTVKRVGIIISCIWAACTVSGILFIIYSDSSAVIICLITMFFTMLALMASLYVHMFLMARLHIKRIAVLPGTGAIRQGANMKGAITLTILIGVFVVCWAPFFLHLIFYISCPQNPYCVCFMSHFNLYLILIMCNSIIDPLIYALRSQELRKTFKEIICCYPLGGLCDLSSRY

Turning to “RNSCKPPAPA[Abu][Abu]DP[Abu]ASCQCRFFRSACS[Abu]RVL (cysteine pairing not given here) [SEQ ID NO:14]”, the IC50 (in general, the concentration that inhibits the measured activity by half) was > 1000 nM in experiment [1], > 1000 nM in experiment [2], > 1000 nM in experiment [3] and 900 nM in experiment [4].
Turning to “C[Abu]DPCAS[Abu]Q[Abu]RFFRSA[Abu]SCRVLSLNC (cysteine pairing not given here) [SEQ ID NO:18]”, the IC50 in experiment [1], in experiment [2], in experiment [3] and in experiment [4] was > 1000 nM throughout.
For the substance “HESCLGQQVP[Abu][Abu]DP[Abu]ATCYCRFFNAFCY[Abu]RKL (cysteine pairing not given here) [SEQ ID NO:3]”, the IC50 in experiment [1] is > 1000 nM; in experiment [2], > 1000 nM; in experiment [3], 900 nM; in experiment [4], 160 nM.
For the substance “HESCLGQQVPC[Abu]DP[Abu]ATCY[Abu]RFFNAF[Abu]YCRKL (cysteine pairing not given here) [SEQ ID NO:5]”, the IC50 was > 1000 nM in experiment [1], > 1000 nM in experiment [2], > 1000 nM in experiment [3] and 377 nM in experiment [4].
For the substance “RNS[Abu]KPPAPAC[Abu]DP[Abu]AS[Abu]QCRFFRSACSCRVL (cysteine pairing not given here) [SEQ ID NO:15]”, the IC50 was > 1000 nM in experiment [1], > 1000 nM in experiment [2], 800 nM in experiment [3] and 45 nM in experiment [4].
